In ChEMBL document CHEMBL1136097, “Synthesis of the first examples of A-C8/C-C2 amide-Linked pyrrolo[2,1-c][1,4]benzodiazepine dimers” (Bioorg Med Chem Lett, 2003):

How the values were obtained:
A2780cisR = assay: In vitro inhibitory activity against human tumor cell line A2780cis; type: functional, cell-based
A2780 = assay: In vitro inhibitory activity against human tumor cell line A2780; type: functional, cell-based
[1] = In vitro inhibitory activity against human tumor cell line CHIcis; type: functional
[2] = In vitro inhibitory activity against human tumor cell line CHI; type: functional
SK-OV-3 = assay: In vitro inhibitory activity against human tumor cell line SKOV-3; type: functional, cell-based

Measured: IC50

COc1cc2c(cc1OC)C(=O)N1C=C(CC(=O)Nc3ccc4c(c3)N=C[C@@H]3CCCN3C4=O)C[C@H]1C=N2
> 25 µM: all assays above
